The test system of data set [1] is male Sprague-Dawley rats. The following applies: nasal, 2%, 20 uL/nare; vehicle cyclodextrin; urethane-anesthetized rats; FIG. 2. The protocol:
Mean arterial blood pressure was measured using a Digi-Med Blood Pressure Analyzer. The rats were anesthetized with urethane (2 g/kg, IP) and the left carotid artery was cannulated. A baseline blood pressure was recorded then the drug (or vehicle) was administered and blood pressure recorded for 45-60 minutes.

The subject of data set [2] is male Sprague-Dawley rats.

SMILES strings stand for the structures. Like-named read-outs stand apart in the source and are kept apart here.

With `C(=C\c1ccccc1)/CN1CCN(C(c2ccccc2)c2ccccc2)CC1` [cinnarizine], in the data set on male Sprague-Dawley rats [1], the “effect on mean arterial blood pressure compared to vehicle treated group” value is “Only the nifedipine group at 45 minutes was statistically significantly different”. Further, in the data set with male Sprague-Dawley rats [2] (rat, in vivo), the “total distance traveled, compared to no treatment group” value is given as “statistically significant difference” and the “total distance traveled, drug treated groups compared to vehicle treated group” value is reported as “no significant difference”. Consider `COc1ccc([C@@H]2Sc3ccccc3N(CCN(C)C)C(=O)[C@@H]2OC(C)=O)cc1` [diltiazem], for which the “total distance traveled, drug treated groups compared to vehicle treated group” value with male Sprague-Dawley rats [2] (rat, in vivo) was “no significant difference”. With `COc1ccc(CCN(C)CCCC(C#N)(c2ccc(OC)c(OC)c2)C(C)C)cc1OC` (centres unmarked) [verapamil], in the data set on male Sprague-Dawley rats [2] (nasal, 2%, 20 uL/nare, vehicle distilled water, an hour after administration, FIG. 5), the “total distance traveled, drug treated groups compared to vehicle treated group” value is listed as “no significant difference”.

Source of the values: US20050191245A1, “Nasal administration of calcium channel, blockers for treatment of hypertension and other cardiovascular disorders” (priority 2004, published 2005).
